The assay deals with glutathione peroxidase (GSH-PX). Nature of the assay: Glutathione peroxidase (GSH-PX) activity in keratinocytes. The following applies: 50 nM Se (sodium selenite 50 nM; selenium yeast 3.95 μg/ml), control cells. In kind it is cell-based, human. On the procedure:
Cultures were maintained at 37° C. in a humidified 5% CO2 atmosphere.

Consider `O=[Se](O)O` [sodium selenite], for which the GSH-PX activity is listed as 91.44±10.37 mU/mg protein. Moreover, the “induction of GSH-PX activity, fold increase vs controls” value (48 h) is recorded as 3.365 fold.
